Structures are written as SMILES.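 These data come from cells grown in 96-well plates and exposed to compound for 48 hours at five concentrations. Here, GI50 denotes the concentration required for 50% inhibition of growth.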 Activity calls are given as the source filed them. Rule as the data show it: active = GI50 up to about 1.1 µM and inactive = higher. Some results are limits rather than exact numbers.

Test systems include OVCAR-3; NCI-H460; SK-MEL-28; OVCAR-8; COLO 205; RXF 393; UO-31; A549; SF-268; OVCAR-4; HCC 2998; MOLT-4; ACHN; SF-539; A498; RPMI-8226.
Common to all, as to assay: DTP human tumour cell line panel, 48 h

Consider `CC(=O)c1c(O)c2c([nH]c1=O)CCCC2`, for which the GI50 in the assay with OVCAR-3 was > 100 µM (inactive); in the assay with NCI-H460, 6.84 µM (inactive); with SK-MEL-28, 94.4 µM (inactive); in the assay with OVCAR-8, 82.2 µM (inactive); with COLO 205, > 100 µM (inactive); with RXF 393 it was 22.3 µM (inactive). Moreover, the GI50 with UO-31 was 17.2 µM (inactive); with A549, 30 µM (inactive); with SF-268, 46.8 µM (inactive); in the assay on OVCAR-4 it was > 100 µM (inactive); in the assay on HCC 2998, 8.05 µM (inactive); in the assay on MOLT-4, 8.34 µM (inactive). Besides, the GI50 with ACHN is > 100 µM (inactive).
In the case of `CN(C)CCC(/C=C/c1ccccc1)=N\Nc1ccc(Cl)c(Cl)c1`, the GI50 with OVCAR-3 was 4.27 µM (inactive); in the assay with NCI-H460 it was 2.01 µM (inactive); in the assay on SK-MEL-28, 9.33 µM (inactive); in the assay with OVCAR-8, 2.7 µM (inactive); in the assay with COLO 205, 2.6 µM (inactive); with RXF 393, 2.74 µM (inactive). In addition, the GI50 with UO-31 was 1.64 µM (inactive); in the assay with A549, 3.13 µM (inactive); with SF-268, 2.56 µM (inactive); in the assay on SF-539 it was 2.2 µM (inactive); with A498, 4.63 µM (inactive); in the assay on OVCAR-4, 3.56 µM (inactive). Further, the figures for the GI50 with RPMI-8226, with MOLT-4 and in the assay on ACHN were 3.44 µM (inactive), 2.44 µM (inactive) and 1.92 µM (inactive), respectively.
Regarding `NC(=O)c1csc(C2C=CC(CO)O2)n1` (stereo not given), the GI50 was > 10 µM (inactive) in the assay with OVCAR-3; > 100 µM (inactive) in the assay with NCI-H460; > 100 µM (inactive) with SK-MEL-28; > 100 µM (inactive) in the assay with OVCAR-8; > 100 µM (inactive) with COLO 205; > 100 µM (inactive) with UO-31. Moreover, the GI50 in the assay on A549, in the assay on SF-268, in the assay on SF-539, in the assay with A498, in the assay with OVCAR-4 and in the assay on HCC 2998 was > 100 µM (inactive) each time. In addition, the GI50 in the assay with RPMI-8226, in the assay on MOLT-4 and with ACHN was > 100 µM (inactive) throughout.
With `Nc1nc2c(c(=O)[n-]1)[n+](CCO)cn2C1OC(CO)C(O)C1O` (stereo not given), the GI50 with OVCAR-3, with NCI-H460, with SK-MEL-28, in the assay on OVCAR-8, in the assay with COLO 205 and with RXF 393 was > 100 µM (inactive) in each case. Moreover, the GI50 with UO-31, in the assay with A549, in the assay on SF-268, in the assay on SF-539, in the assay on A498 and with OVCAR-4 was > 100 µM (inactive) in each case. Further, the GI50 in the assay with RPMI-8226 and in the assay with ACHN was > 100 µM (inactive) each time.
For `COc1cc2c(cc1OC)C1Cc3cc(OC)c(OC)cc3N1CC2` (stereo not given), the GI50 in the assay on OVCAR-3 is 31.9 µM (inactive); with NCI-H460 it was 40.2 µM (inactive); with SK-MEL-28, 32.1 µM (inactive); with OVCAR-8, 34.8 µM (inactive); in the assay on COLO 205, 20.5 µM (inactive); in the assay with UO-31, 36.9 µM (inactive). The GI50 in the assay with A549 is 26.9 µM (inactive); with SF-268, 35 µM (inactive); in the assay with A498 it was 40.5 µM (inactive); with OVCAR-4, 18.9 µM (inactive); in the assay with HCC 2998, 79.4 µM (inactive); in the assay with RPMI-8226, 28.8 µM (inactive). Moreover, the GI50 is 30.8 µM (inactive) with MOLT-4 and 22.3 µM (inactive) in the assay with ACHN.
As to `N/N=C(\CCN1CCCC1)CC(c1ccccc1)c1c(O)c2ccccc2oc1=O` (stereo not given), the GI50 with OVCAR-3, with NCI-H460, in the assay on SK-MEL-28, with OVCAR-8, in the assay with COLO 205 and in the assay with RXF 393 was > 100 µM (inactive) in each case. In addition, the GI50 with A549, in the assay on SF-268, in the assay on SF-539, in the assay with OVCAR-4, in the assay on HCC 2998 and with RPMI-8226 was > 100 µM (inactive) in each case. Moreover, the GI50 in the assay on MOLT-4 and with ACHN was > 100 µM (inactive) each time.
In the case of `O=C(O)c1c2c(cc3c(=O)c4ccccc4[nH]c13)CCCC2`, the GI50 in the assay on OVCAR-3, in the assay on NCI-H460, in the assay on SK-MEL-28, in the assay with OVCAR-8, in the assay with COLO 205 and with RXF 393 was > 100 µM (inactive) throughout. Also, the GI50 is > 100 µM (inactive) in the assay on UO-31; > 100 µM (inactive) in the assay on A549; > 100 µM (inactive) in the assay on SF-268; > 100 µM (inactive) with SF-539; 46.3 µM (inactive) in the assay with HCC 2998; > 100 µM (inactive) with RPMI-8226. Moreover, the GI50 in the assay on MOLT-4 and in the assay on ACHN was > 100 µM (inactive) in each case.
Turning to `Cc1cc(C)nc(NS(=O)(=O)c2ccc(Nc3c4ccccc4nc4c(C(=O)NCCN(C)C)cccc34)cc2)n1`, the GI50 in the assay with NCI-H460 was 0.771 µM (active); with SK-MEL-28, 5.97 µM (inactive); in the assay on OVCAR-8, 0.675 µM (active); in the assay with COLO 205, 1.86 µM (inactive); in the assay on RXF 393, 6.32 µM (inactive); in the assay on UO-31, 1.49 µM (inactive). Besides, the GI50 in the assay on A549 was 3.13 µM (inactive); in the assay on SF-268, 2.57 µM (inactive); with SF-539, 2.85 µM (inactive); in the assay with OVCAR-4, 3.04 µM (inactive); in the assay with MOLT-4, 0.277 µM (active); in the assay on ACHN, 3.49 µM (inactive).
For `CSC(C1c2ccccc2N(c2ccc(C)cc2)C2=NC(=O)N(C)C(=O)C21Cl)S(=O)(=O)c1ccc(C)cc1` (stereo not given), the GI50 with OVCAR-3 was 13.2 µM (inactive); in the assay on NCI-H460, 24 µM (inactive); with SK-MEL-28, 21 µM (inactive); with OVCAR-8 it was 27.8 µM (inactive); in the assay on COLO 205, 19.3 µM (inactive); with UO-31 it was 22.4 µM (inactive). Further, the GI50 in the assay on A549 is 34 µM (inactive); in the assay on SF-268, 23.6 µM (inactive); with SF-539, 17.5 µM (inactive); in the assay on A498 it was 33 µM (inactive); with OVCAR-4, 17.9 µM (inactive); in the assay on HCC 2998 it was 20.4 µM (inactive). For the same molecule, the results for the GI50 in the assay on RPMI-8226, in the assay with MOLT-4 and in the assay with ACHN were 16 µM (inactive), 6.08 µM (inactive) and 31.4 µM (inactive), respectively.
`COC1CC(n2cc(F)c(N)nc2=O)OC1CO` (stereo not given): the GI50 in the assay on OVCAR-3 was > 100 µM (inactive); with NCI-H460 it was 94 µM (inactive); in the assay with SK-MEL-28, > 100 µM (inactive); in the assay with OVCAR-8, > 100 µM (inactive); in the assay on COLO 205, > 100 µM (inactive); in the assay with RXF 393 it was > 100 µM (inactive). For the same molecule, the GI50 in the assay on UO-31 is > 100 µM (inactive); in the assay with A549, > 100 µM (inactive); in the assay with SF-268 it was > 100 µM (inactive); with OVCAR-4 it was > 100 µM (inactive); with HCC 2998 it was 9.77 µM (inactive); in the assay with RPMI-8226, > 100 µM (inactive). In addition, the GI50 in the assay with MOLT-4 and with ACHN was > 100 µM (inactive) throughout.

One may read the GI50 as the concentration that inhibits growth by half.

Source of the values: ChEMBL document CHEMBL1201862, “PubChem BioAssay data set” (2004).
